Key:
sGC = biological target: T1, sGC (Rattus norvegicus, UniProt P20595); assay: Action at a recombinant guanylate cyclase reporter cell line (CHO reporter cell); assay type: cell-based; conditions: CHO reporter cell in vitro
T1 construct: expressed in transfected cells; host or cells: CHO reporter cell
Description: The cellular action of the compounds according to the invention is determined at a recombinant guanylate cyclase reporter cell line, as described in F. Wunder et al., Anal. Biochem. 339, 104-112 (2005).

[1] = biological target: T2, soluble guanylate cyclase (sGC) (Rattus norvegicus, UniProt P20595); assay: Stimulation of sGC enzyme activity (PPi detection, luciferase); assay type: biochemical; conditions: sGC enzyme in vitro; for EC50: read-out: EC50 (concentration at 50% of maximum efficacy), activating action at the sGC enzyme
T2 construct: made in house; host or cells: Sf9 insect cells (baculovirus)
Description: Soluble guanylate cyclase (sGC) converts on stimulation GTP into cGMP and pyrophosphate (PPi). PPi is detected with the aid of the assay described below. The signal produced in the assay increases as the reaction progresses and serves as a measure of the sGC enzyme activity under the given stimulation.
To carry out the assay, 29 μl of enzyme solution [0-10 nM soluble guanylate cyclase (prepared according to Honicka et al., J. Mol. Med. 77, 14-23 (1999)) in 50 mM TEA, 2 mM MgCl2, 0.1% BSA (fraction V), 0.005% Brij®, pH 7.5] are initially introduced into a microplate, and 1 μl of the substance to be tested (as a serially diluted solution in DMSO) is added. The mixture is incubated at room temperature for 10 min. Then 20 μl of detection mix [1.2 nM Firefly Luciferase (Photinus pyralis luciferase, Promega), 29 μM dehydroluciferin (prepared according to Bitler & McElroy, Arch. Biochem. Biophys. 72, 358 (1957)), 122 μM luciferin (Promega), 153 μM ATP (Sigma) and 0.4 mM DTT (Sigma) in 50 mM TEA, 2 mM MgCl2, 0.1% BSA (fraction V), 0.005% Brij®, pH 7.5] are added. The enzyme reaction is started by adding 20 μl of substrate solution [1.25 mM guanosine 5′-triphosphate (Sigma) in 50 mM TEA, 2 mM MgCl2, 0.1% BSA (fraction V), 0.005% Brij®, pH 7.5] and measured continuously in a luminometer. The extent of the stimulation by the substance to be tested can be determined relative to the signal of the unstimulated reaction.
The activation of haem-free guanylate cyclase is examined by addition of 25 μM of 1H-1,2,4-oxadiazolo[4,3-a]quinoxalin-1-one (ODQ) to the enzyme solution and subsequent incubation for 30 minutes and compared to the stimulation of the native enzyme.

saphenous artery = assay: Vasorelaxant effect in vitro (phenylephrine-contracted saphenous artery rings); parameters: species or system Rabbits; conditions: Oryctolagus cuniculus; rabbit saphenous artery rings, phenylephrine-induced contraction
Description: Rabbits are anaesthetized and sacrificed by intravenous injection of thiopental sodium (about 50 mg/kg) and exsanguinated. The saphenous artery is removed and divided into rings 3 mm wide. the rings are mounted singly on in each case a pair of triangular hooks open at the end and made of 0.3 mm-thick special wire (Remanium®). Each ring is placed under an initial tension in 5 ml organ baths with Krebs-Henseleit solution which is at 37° C., is gassed with carbogen and has the following composition: NaCl 119 mM; KCl 4.8 mM; CaCl2×2 H2O 1 mM; MgSO4×7 H2O 1.4 mM; KH2PO4 1.2 mM; NaHCO3 25 mM; glucose 10 mM; bovine serum albumin 0.001%. The force of contraction is detected with Statham UC2 cells, amplified and digitized via A/D converters (DAS-1802 HC, Keithley Instruments, Munich) and recorded in parallel on chart recorders. Contractions are induced by addition of phenylephrine.
After several (generally 4) control cycles, the substance to be investigated is added in each further run in increasing dosage, and the level of the contraction achieved under the influence of the test substance is compared with the level of the contraction reached in the last preceding run. The concentration necessary to reduce the contraction reached in the preceding control by 50% is calculated from this (IC50). The standard application volume is 5 μl. The proportion of DMSO in the bath solution corresponds to 0.1%.

GAL4-PPARδ = biological target: T3, GAL4-PPARδ (Homo sapiens, UniProt Q03181); assay: Cellular PPAR transactivation assay, GAL4-PPARδ chimera in CHO-K1 cells; assay type: cell-based
T3 construct: PPARδ (amino acids 138-442); expressed in transfected cells
T3 sequence (Q03181 138-441 limits assumed): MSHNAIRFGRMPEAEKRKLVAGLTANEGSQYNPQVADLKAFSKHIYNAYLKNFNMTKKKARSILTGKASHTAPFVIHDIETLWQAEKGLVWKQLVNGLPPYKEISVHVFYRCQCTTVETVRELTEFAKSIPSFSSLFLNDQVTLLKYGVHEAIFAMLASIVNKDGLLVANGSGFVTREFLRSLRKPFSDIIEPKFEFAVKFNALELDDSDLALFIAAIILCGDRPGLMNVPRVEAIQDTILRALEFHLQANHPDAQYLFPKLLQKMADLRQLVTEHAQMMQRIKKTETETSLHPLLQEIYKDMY
Description: (§1) A cellular assay is used to test for potentially activating properties of the compounds according to the invention with respect to the three human isoforms of the peroxisome proliferator-activated receptors (PPARα, PPARγ and PPARδ).
(§2) Since mammalian cells contain different endogenous nuclear receptors which may complicate an unambiguous interpretation of the results, an established chimera system is used in which the respective ligand binding domain of the human PPAR isoforms is fused to the DNA binding domain of the yeast transcription factor GAL4. The resulting GAL4-PPARα, γ and δ chimeras are co-transfected and stably expressed in CHO cells having a reporter construct.
(§3) The GAL4-PPAR expression constructs contain the ligand binding domain of PPARα (amino acids 167-468), PPARγ (amino acids 203-506) and PPARδ (amino acids 138-442) which are PCR-amplified and cloned into the vector pcDNA3.1. The respective expression vectors already contain the GAL4 DNA binding domain (amino acids 1-147) of the vector pFC2-dbd (Stratagene). The reporter construct, which contains five copies of the GAL4 binding site upstream of a thymidine kinase promoter, expresses firefly luciferase (Photinus pyralis) following activation and binding of GAL4-PPARα, γ or δ.
(§4) The day before the test, CHO-K1 cells (chinese hamster ovary; ATCC CCL-61) each stably expressing one of the above-described GAL4-PPAR chimeras and the luciferase reporter gene construct are sown in medium [Optimem (GIBCO) with 2% activated carbon-purified foetal calf serum (Hyclone), 1.35 mM sodium pyruvate (GIBCO) and 0.2% sodium bicarbonate (GIBCO)] in a density of 1×10^3 cells in 96-well microtitre plates (Greiner) and kept in a cell incubator (96% atmospheric humidity, 5% v/v CO2, 37° C.). On the test day, the substances to be tested are taken up in the medium mentioned above, but without addition of calf serum, and added in various concentrations to the cells. After a stimulation period of 6 h, the luciferase activity is measured using a video camera. The relative light units measured give, as a function of the substance concentration, a sigmoidal stimulation curve. The EC50 values are calculated using the computer programme GraphPad PRISM (Version 3.02). The maximum effect of a test substance in the respective PPAR assay is determined as efficacy in percent in comparison to an appropriate reference compound whose maximum effect is defined as 100%.
(§5) The reference compound selected here was the compound 2-(3-{[(2-chloro-4-propoxybenzoyl)-amino]methyl}-4-ethoxybenzyl)tetrahydrofuran-2-carboxylic acid [Example 73 of EP 1 452 521-A1] which is described in the prior art as a potent pan-PPAR agonist.

GAL4-PPARα = biological target: T4, GAL4-PPARα (Homo sapiens, UniProt Q07869); assay: Cellular PPAR transactivation assay, GAL4-PPARα chimera in CHO-K1 cells; assay type: cell-based
T4 construct: expressed in transfected cells
T4 sequence (Q07869 167-468): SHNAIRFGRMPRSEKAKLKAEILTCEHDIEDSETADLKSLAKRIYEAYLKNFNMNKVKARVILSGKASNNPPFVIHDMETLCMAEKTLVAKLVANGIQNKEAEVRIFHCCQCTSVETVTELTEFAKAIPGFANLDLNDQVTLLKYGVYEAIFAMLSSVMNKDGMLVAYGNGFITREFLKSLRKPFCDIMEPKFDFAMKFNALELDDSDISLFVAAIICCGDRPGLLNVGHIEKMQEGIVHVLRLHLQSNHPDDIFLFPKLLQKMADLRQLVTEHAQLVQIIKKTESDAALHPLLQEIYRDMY
Description: as §1, §2, §3, §4, §5

GAL4-PPARγ = biological target: T5, GAL4-PPARγ (Homo sapiens, UniProt P37231); assay: Cellular PPAR transactivation assay, GAL4-PPARγ chimera in CHO-K1 cells; assay type: cell-based
T5 construct: PPARγ (amino acids 203-506); expressed in transfected cells
T5 sequence (P37231 203-505 limits assumed): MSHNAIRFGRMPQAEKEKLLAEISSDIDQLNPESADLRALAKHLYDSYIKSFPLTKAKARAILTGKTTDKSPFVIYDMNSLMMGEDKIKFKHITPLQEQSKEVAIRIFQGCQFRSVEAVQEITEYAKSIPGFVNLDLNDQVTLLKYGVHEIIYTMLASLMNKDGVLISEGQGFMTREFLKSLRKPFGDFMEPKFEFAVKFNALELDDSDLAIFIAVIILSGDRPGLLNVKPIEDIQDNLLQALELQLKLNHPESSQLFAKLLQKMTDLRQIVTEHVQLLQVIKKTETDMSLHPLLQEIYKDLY
Description: as §1, §2, §3, §4, §5

[2] = CHO-K1 cells, luciferase reporter, 6 h stimulation

T2 sequence (P19686 whole entry partner): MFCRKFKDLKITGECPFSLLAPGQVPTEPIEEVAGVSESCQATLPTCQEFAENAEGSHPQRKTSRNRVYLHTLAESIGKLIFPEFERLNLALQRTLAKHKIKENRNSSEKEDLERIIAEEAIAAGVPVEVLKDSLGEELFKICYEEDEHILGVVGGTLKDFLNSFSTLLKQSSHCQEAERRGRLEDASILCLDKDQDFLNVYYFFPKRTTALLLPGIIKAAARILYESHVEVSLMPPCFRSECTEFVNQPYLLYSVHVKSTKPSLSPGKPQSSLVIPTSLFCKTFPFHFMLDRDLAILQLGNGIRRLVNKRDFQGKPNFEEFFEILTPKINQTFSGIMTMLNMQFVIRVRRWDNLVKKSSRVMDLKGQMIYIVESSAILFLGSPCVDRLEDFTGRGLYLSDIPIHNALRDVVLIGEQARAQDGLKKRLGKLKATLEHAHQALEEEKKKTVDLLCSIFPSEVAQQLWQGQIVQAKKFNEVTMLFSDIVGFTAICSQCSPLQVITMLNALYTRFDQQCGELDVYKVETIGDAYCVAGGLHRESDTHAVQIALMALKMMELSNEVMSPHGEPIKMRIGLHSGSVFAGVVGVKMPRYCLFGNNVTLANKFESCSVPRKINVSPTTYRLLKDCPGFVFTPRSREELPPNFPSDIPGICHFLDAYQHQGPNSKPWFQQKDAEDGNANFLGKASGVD
T2 sequence (P20595 whole entry): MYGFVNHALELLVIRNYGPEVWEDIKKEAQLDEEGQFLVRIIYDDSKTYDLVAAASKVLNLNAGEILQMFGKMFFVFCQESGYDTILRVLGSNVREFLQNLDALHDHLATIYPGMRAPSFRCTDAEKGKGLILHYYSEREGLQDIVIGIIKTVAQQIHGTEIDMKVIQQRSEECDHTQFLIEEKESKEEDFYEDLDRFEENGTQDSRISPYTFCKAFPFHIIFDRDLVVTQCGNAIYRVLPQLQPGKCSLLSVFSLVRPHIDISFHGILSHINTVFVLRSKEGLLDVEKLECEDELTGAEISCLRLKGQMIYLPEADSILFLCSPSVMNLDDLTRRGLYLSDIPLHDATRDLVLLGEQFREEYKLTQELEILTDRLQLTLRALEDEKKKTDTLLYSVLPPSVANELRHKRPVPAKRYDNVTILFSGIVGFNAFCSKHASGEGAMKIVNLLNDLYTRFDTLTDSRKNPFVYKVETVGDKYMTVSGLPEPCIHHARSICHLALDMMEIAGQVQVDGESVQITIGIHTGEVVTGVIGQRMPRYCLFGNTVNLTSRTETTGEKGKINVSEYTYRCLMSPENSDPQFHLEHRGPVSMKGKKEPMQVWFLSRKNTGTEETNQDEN
T1 sequence (P19686 whole entry partner): as the sequence (P19686 whole entry partner) above
T1 sequence (P20595 whole entry): as the sequence (P20595 whole entry) above

SMILES	MEC (minimum effective concentration), sGC-activating activity in the CHO reporter cell (sGC) [nM]	MEC (minimum effective concentration), activating action at the sGC enzyme [1] [nM]	EC50 [1] [nM]	IC50 (saphenous artery) [nM]	Emax (GAL4-PPARδ; CHO-K1, maximum effect relative to reference compound (Example 73 of EP 1 452 521-A1 = 100%), read-out: PPARδ efficacy) [%]	EC50 (GAL4-PPARδ; [2]) [nM]	Emax (GAL4-PPARα; CHO-K1, maximum effect relative to reference compound (Example 73 of EP 1 452 521-A1 = 100%), read-out: PPARα efficacy) [%]	EC50 (GAL4-PPARα; [2]) [nM]	Emax (GAL4-PPARγ; CHO-K1, maximum effect relative to reference compound (Example 73 of EP 1 452 521-A1 = 100%), read-out: PPARγ efficacy) [%]	EC50 (GAL4-PPARγ; [2]) [nM]
CCOC(c1ccc(Cl)c(NC(=O)[C@H](c2ccc(Cl)cc2)[C@@H](C)C(F)(F)F)c1)C1(C(=O)O)CCC1 (single isomer, unassigned) [Example 109]	0.3	0.7	20	338	–	–	–	–	–	–
CC(C(C(=O)Nc1cc(CC2(C(=O)O)CC2)ccc1Cl)c1ccc(CC(F)(F)F)cc1)C(F)(F)F (single isomer, unassigned) [Example 82, 1-[4-Chloro-3-({4,4,4-trifluoro-3-methyl-2-[4-(2,2,2-trifluoroethyl)phenyl]butanoyl}amino)-benzyl]cyclopropanecarboxylic acid]	1.7	3.4	44	–	0	> 10000	0	> 10000	20	2300
